Experimental data reported in PubChem BioAssay (NCI).
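Cultured in 96-well plates, cells were exposed to test compound for 48 hours across five concentrations. TGI: total growth inhibition.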

Legend:
Experiment in all cases: growth of human tumour cells (NCI), 48 h
LOX IMVI melanoma = tested on: LOX IMVI melanoma
OVCAR-3 ovarian = tested on: OVCAR-3 ovarian
SF-268 CNS = tested on: SF-268 CNS
CAKI-1 renal = tested on: CAKI-1 renal
KM20L2 colon = tested on: KM20L2 colon
HOP-92 NSCLC = tested on: HOP-92 NSCLC
HCT-15 colon = tested on: HCT-15 colon
UACC-62 melanoma = tested on: UACC-62 melanoma
MALME-3M melanoma = tested on: MALME-3M melanoma
OVCAR-5 ovarian = tested on: OVCAR-5 ovarian
LXFL 529 NSCLC = tested on: LXFL 529 NSCLC
HCT-116 colon = tested on: HCT-116 colon
UO-31 renal = tested on: UO-31 renal
SF-295 CNS = tested on: SF-295 CNS
SK-OV-3 ovarian = tested on: SK-OV-3 ovarian
SNB-75 CNS = tested on: SNB-75 CNS
IGROV1 ovarian = tested on: IGROV1 ovarian
NCI-H460 lung = tested on: NCI-H460 lung
RPMI-8226 leukemia = tested on: RPMI-8226 leukemia
COLO 205 colon = tested on: COLO 205 colon
SK-MEL-5 melanoma = tested on: SK-MEL-5 melanoma
A498 renal = tested on: A498 renal
NCI-H226 lung = tested on: NCI-H226 lung
786-0 renal = tested on: 786-0 renal
HOP-18 NSCLC = tested on: HOP-18 NSCLC
XF 498 CNS = tested on: XF 498 CNS
NCI-H23 lung = tested on: NCI-H23 lung
M19-MEL melanoma = tested on: M19-MEL melanoma
OVCAR-4 ovarian = tested on: OVCAR-4 ovarian
TK-10 renal = tested on: TK-10 renal
RXF-631 renal = tested on: RXF-631 renal
SF-539 CNS = tested on: SF-539 CNS
K-562 leukemia = tested on: K-562 leukemia
HOP-62 NSCLC = tested on: HOP-62 NSCLC
HL-60(TB) leukemia = tested on: HL-60(TB) leukemia
DLD-1 colon = tested on: DLD-1 colon
SN12C renal = tested on: SN12C renal
OVCAR-8 ovarian = tested on: OVCAR-8 ovarian
EKVX NSCLC = tested on: EKVX NSCLC
SW-620 colon = tested on: SW-620 colon
M14 melanoma = tested on: M14 melanoma
MOLT-4 leukemia = tested on: MOLT-4 leukemia
SNB-78 CNS = tested on: SNB-78 CNS
NCI-H522 lung = tested on: NCI-H522 lung
SR leukemia = tested on: SR leukemia
RXF 393 renal = tested on: RXF 393 renal
CCRF-CEM leukemia = tested on: CCRF-CEM leukemia
DMS 273 small cell lung = tested on: DMS 273 small cell lung
U251 CNS = tested on: U251 CNS
HT29 colon = tested on: HT29 colon
SK-MEL-2 melanoma = tested on: SK-MEL-2 melanoma
DMS 114 small cell lung = tested on: DMS 114 small cell lung
SNB-19 CNS = tested on: SNB-19 CNS
KM12 colon = tested on: KM12 colon
A549 NSCLC = tested on: A549 NSCLC
UACC-257 melanoma = tested on: UACC-257 melanoma
HCC-2998 colon = tested on: HCC-2998 colon
SK-MEL-28 melanoma = tested on: SK-MEL-28 melanoma
ACHN renal = tested on: ACHN renal

Compound CC(C)=CCCC(C)[C@H]1CC(O)C2(C)C3=CCC4C(C)(C)[C@@H](O)CC[C@]4(C)C3=CC[C@]12C (stereo not given in full) has a TGI (LOX IMVI melanoma) of 1.07 µM, a TGI (OVCAR-3 ovarian) of 13.1 µM and a TGI (SF-268 CNS) of 28.3 µM. The TGI (CAKI-1 renal) was 24.4 µM, the TGI (KM20L2 colon) was 93.6 µM and the TGI (HOP-92 NSCLC) was 9.53 µM. For the same compound, the TGI (HCT-15 colon) was 45.7 µM, the TGI (UACC-62 melanoma) was 15.1 µM and the TGI (MALME-3M melanoma) was 34.2 µM. For the same compound, the TGI (OVCAR-5 ovarian) was > 100 µM, the TGI (LXFL 529 NSCLC) was 5.09 µM and the TGI (HCT-116 colon) was 6.22 µM. It also gave a TGI (UO-31 renal) of 41.6 µM, a TGI (SF-295 CNS) of 5.91 µM and a TGI (SK-OV-3 ovarian) of 24.8 µM. For the same compound, the TGI (SNB-75 CNS) was 21.3 µM, the TGI (IGROV1 ovarian) was 48.7 µM and the TGI (NCI-H460 lung) was 4.92 µM. For the same compound, the TGI (RPMI-8226 leukemia) was 34.4 µM, the TGI (COLO 205 colon) was 20.7 µM and the TGI (SK-MEL-5 melanoma) was > 100 µM. For the same compound, the TGI (A498 renal) was 16.3 µM, the TGI (NCI-H226 lung) was 15.1 µM and the TGI (786-0 renal) was 3.52 µM. For the same compound, the TGI (HOP-18 NSCLC) was 31.6 µM, the TGI (XF 498 CNS) was 25.1 µM and the TGI (NCI-H23 lung) was 14.9 µM. It also gave a TGI (M19-MEL melanoma) of 13.8 µM, a TGI (OVCAR-4 ovarian) of 6.48 µM and a TGI (TK-10 renal) of 50.1 µM. It also gave a TGI (RXF-631 renal) of 34 µM, a TGI (SF-539 CNS) of 6.58 µM and a TGI (K-562 leukemia) of 26.6 µM. For the same compound, the TGI (HOP-62 NSCLC) was 18.9 µM, the TGI (HL-60(TB) leukemia) was 35 µM and the TGI (DLD-1 colon) was 27.1 µM. For the same compound, the TGI (SN12C renal) was 12.3 µM, the TGI (OVCAR-8 ovarian) was 3.79 µM and the TGI (EKVX NSCLC) was > 100 µM. It also gave a TGI (SW-620 colon) of 14.7 µM, a TGI (M14 melanoma) of 18.5 µM and a TGI (MOLT-4 leukemia) of 42.4 µM. It also gave a TGI (SNB-78 CNS) of 32.4 µM, a TGI (NCI-H522 lung) of 16.2 µM and a TGI (SR leukemia) of 44.2 µM. It also gave a TGI (RXF 393 renal) of 7.59 µM, a TGI (CCRF-CEM leukemia) of 25.8 µM and a TGI (DMS 273 small cell lung) of 3.74 µM. The TGI (U251 CNS) was 6.54 µM, the TGI (HT29 colon) was 14.6 µM and the TGI (SK-MEL-2 melanoma) was 79.5 µM. For the same compound, the TGI (DMS 114 small cell lung) was 33.5 µM, the TGI (SNB-19 CNS) was 30.2 µM and the TGI (KM12 colon) was > 100 µM. For the same compound, the TGI (A549 NSCLC) was 10.6 µM and the TGI (UACC-257 melanoma) was > 100 µM.
COc1ccc(C(c2ccc(C(C)C)cc(OC)c2=O)c2ccc(C(C)C)cc(OC)c2=O)cc1 was tested, and the TGI (LOX IMVI melanoma) was 31 µM, the TGI (OVCAR-3 ovarian) was 26 µM and the TGI (SF-268 CNS) was 26.5 µM. For the same compound, the TGI (CAKI-1 renal) was 33.3 µM, the TGI (KM20L2 colon) was 27 µM and the TGI (HOP-92 NSCLC) was 27.1 µM. It also gave a TGI (HCT-15 colon) of 25.3 µM, a TGI (UACC-62 melanoma) of 28.1 µM and a TGI (MALME-3M melanoma) of 30.6 µM. The TGI (OVCAR-5 ovarian) was 34.3 µM, the TGI (LXFL 529 NSCLC) was 28.1 µM and the TGI (HCT-116 colon) was 23.1 µM. It also gave a TGI (UO-31 renal) of 27.3 µM, a TGI (SF-295 CNS) of 29.7 µM and a TGI (SK-OV-3 ovarian) of 32.3 µM. For the same compound, the TGI (SNB-75 CNS) was 34 µM, the TGI (NCI-H460 lung) was 30 µM and the TGI (RPMI-8226 leukemia) was 25.6 µM. For the same compound, the TGI (COLO 205 colon) was 31.1 µM, the TGI (SK-MEL-5 melanoma) was 27.4 µM and the TGI (A498 renal) was 31.7 µM. For the same compound, the TGI (NCI-H226 lung) was 32.3 µM, the TGI (786-0 renal) was 30.5 µM and the TGI (HOP-18 NSCLC) was 40.1 µM. It also gave a TGI (XF 498 CNS) of 34.7 µM, a TGI (NCI-H23 lung) of 30.8 µM and a TGI (M19-MEL melanoma) of 27.1 µM. It also gave a TGI (OVCAR-4 ovarian) of 24.9 µM, a TGI (TK-10 renal) of 34.2 µM and a TGI (RXF-631 renal) of 34.8 µM. For the same compound, the TGI (SF-539 CNS) was 30.9 µM, the TGI (K-562 leukemia) was 35.9 µM and the TGI (HOP-62 NSCLC) was 35.5 µM. The TGI (HL-60(TB) leukemia) was 41.9 µM, the TGI (DLD-1 colon) was 19.6 µM and the TGI (SN12C renal) was 30.3 µM. For the same compound, the TGI (OVCAR-8 ovarian) was 32.5 µM, the TGI (EKVX NSCLC) was 26.6 µM and the TGI (SW-620 colon) was 28.8 µM. For the same compound, the TGI (M14 melanoma) was 28 µM, the TGI (MOLT-4 leukemia) was 31.3 µM and the TGI (SNB-78 CNS) was 27.3 µM. For the same compound, the TGI (NCI-H522 lung) was 27.8 µM, the TGI (SR leukemia) was 38.2 µM and the TGI (RXF 393 renal) was 15 µM. For the same compound, the TGI (CCRF-CEM leukemia) was 38.5 µM, the TGI (DMS 273 small cell lung) was 28 µM and the TGI (U251 CNS) was 26.6 µM. For the same compound, the TGI (HT29 colon) was 22.7 µM, the TGI (SK-MEL-2 melanoma) was 29.3 µM and the TGI (DMS 114 small cell lung) was 24.7 µM. For the same compound, the TGI (SNB-19 CNS) was 29.3 µM, the TGI (KM12 colon) was 26.4 µM and the TGI (A549 NSCLC) was 24.6 µM. For the same compound, the TGI (UACC-257 melanoma) was 29 µM.
For CCOC(=O)C1C(c2ccccc2)=C(c2ccccc2)C(c2ccccc2)=C1c1ccccc1, the TGI (LOX IMVI melanoma) was > 100 µM, the TGI (OVCAR-3 ovarian) was 68.7 µM and the TGI (SF-268 CNS) was > 100 µM. The TGI (CAKI-1 renal) was > 100 µM, the TGI (KM20L2 colon) was > 100 µM and the TGI (HOP-92 NSCLC) was 50.7 µM. For the same compound, the TGI (HCT-15 colon) was > 100 µM, the TGI (UACC-62 melanoma) was 60.9 µM and the TGI (MALME-3M melanoma) was > 91.7 µM. The TGI (OVCAR-5 ovarian) was > 100 µM, the TGI (HCC-2998 colon) was > 100 µM and the TGI (LXFL 529 NSCLC) was > 100 µM. For the same compound, the TGI (HCT-116 colon) was > 76.6 µM, the TGI (UO-31 renal) was > 93.7 µM and the TGI (SF-295 CNS) was 69.8 µM. For the same compound, the TGI (SK-OV-3 ovarian) was 49 µM, the TGI (SNB-75 CNS) was 32.1 µM and the TGI (IGROV1 ovarian) was > 70.2 µM. For the same compound, the TGI (NCI-H460 lung) was > 100 µM, the TGI (RPMI-8226 leukemia) was > 100 µM and the TGI (COLO 205 colon) was > 100 µM. The TGI (SK-MEL-5 melanoma) was > 100 µM, the TGI (A498 renal) was 57.1 µM and the TGI (SK-MEL-28 melanoma) was > 100 µM. The TGI (NCI-H226 lung) was > 60.1 µM, the TGI (786-0 renal) was 55.8 µM and the TGI (HOP-18 NSCLC) was 82.4 µM. The TGI (XF 498 CNS) was > 56.8 µM, the TGI (NCI-H23 lung) was > 100 µM and the TGI (M19-MEL melanoma) was > 100 µM. For the same compound, the TGI (OVCAR-4 ovarian) was > 100 µM, the TGI (TK-10 renal) was 57.4 µM and the TGI (RXF-631 renal) was > 100 µM. The TGI (SF-539 CNS) was 91 µM, the TGI (K-562 leukemia) was > 100 µM and the TGI (HOP-62 NSCLC) was 33.3 µM. The TGI (HL-60(TB) leukemia) was > 100 µM, the TGI (DLD-1 colon) was > 100 µM and the TGI (SN12C renal) was > 83.6 µM. For the same compound, the TGI (OVCAR-8 ovarian) was > 72.7 µM, the TGI (EKVX NSCLC) was > 100 µM and the TGI (SW-620 colon) was > 100 µM. The TGI (M14 melanoma) was > 100 µM, the TGI (MOLT-4 leukemia) was > 100 µM and the TGI (SNB-78 CNS) was > 91.6 µM. The TGI (NCI-H522 lung) was 98.1 µM, the TGI (SR leukemia) was > 100 µM and the TGI (RXF 393 renal) was 40.4 µM. For the same compound, the TGI (CCRF-CEM leukemia) was > 100 µM, the TGI (ACHN renal) was > 82.2 µM and the TGI (DMS 273 small cell lung) was > 100 µM. For the same compound, the TGI (U251 CNS) was 55.7 µM, the TGI (HT29 colon) was > 100 µM and the TGI (SK-MEL-2 melanoma) was > 82.3 µM. The TGI (DMS 114 small cell lung) was > 100 µM, the TGI (SNB-19 CNS) was 40.3 µM and the TGI (KM12 colon) was > 100 µM. The TGI (A549 NSCLC) was 97.4 µM and the TGI (UACC-257 melanoma) was > 100 µM.
